This is an account of results in US7446199B2, “Compositions useful as inhibitors of protein kinases” (Vertex Pharmaceuticals Incorporated, priority 2003, dated 2008).

The target of one test is c-Met (Homo sapiens, UniProt P08581). In words: Ki determination for the inhibition of c-Met, coupled enzyme system. Format: biochemical. The following applies: 200 μM ATP, 10 μM polyGluTyr, 80 nM c-Met, 30° C. In outline:
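Coupled pyruvate kinase/lactate dehydrogenase NADH assay with 80 nM c-Met, 200 μM ATP, 10 μM polyGluTyr in pH 7.5 HEPES, 1.5% DMSO at 30° C. Compound (0.006–12.5 μM final, 12-point) preincubated 10 min; ATP started reaction, rates read over 10 min; Ki derived from rate versus inhibitor concentration.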

Another test deals with T1, FLT-3 (Homo sapiens, UniProt P36888).
T1 construct: 0.02% BSA and 3 nM FLT-3
T1 sequence (P36888 27-993): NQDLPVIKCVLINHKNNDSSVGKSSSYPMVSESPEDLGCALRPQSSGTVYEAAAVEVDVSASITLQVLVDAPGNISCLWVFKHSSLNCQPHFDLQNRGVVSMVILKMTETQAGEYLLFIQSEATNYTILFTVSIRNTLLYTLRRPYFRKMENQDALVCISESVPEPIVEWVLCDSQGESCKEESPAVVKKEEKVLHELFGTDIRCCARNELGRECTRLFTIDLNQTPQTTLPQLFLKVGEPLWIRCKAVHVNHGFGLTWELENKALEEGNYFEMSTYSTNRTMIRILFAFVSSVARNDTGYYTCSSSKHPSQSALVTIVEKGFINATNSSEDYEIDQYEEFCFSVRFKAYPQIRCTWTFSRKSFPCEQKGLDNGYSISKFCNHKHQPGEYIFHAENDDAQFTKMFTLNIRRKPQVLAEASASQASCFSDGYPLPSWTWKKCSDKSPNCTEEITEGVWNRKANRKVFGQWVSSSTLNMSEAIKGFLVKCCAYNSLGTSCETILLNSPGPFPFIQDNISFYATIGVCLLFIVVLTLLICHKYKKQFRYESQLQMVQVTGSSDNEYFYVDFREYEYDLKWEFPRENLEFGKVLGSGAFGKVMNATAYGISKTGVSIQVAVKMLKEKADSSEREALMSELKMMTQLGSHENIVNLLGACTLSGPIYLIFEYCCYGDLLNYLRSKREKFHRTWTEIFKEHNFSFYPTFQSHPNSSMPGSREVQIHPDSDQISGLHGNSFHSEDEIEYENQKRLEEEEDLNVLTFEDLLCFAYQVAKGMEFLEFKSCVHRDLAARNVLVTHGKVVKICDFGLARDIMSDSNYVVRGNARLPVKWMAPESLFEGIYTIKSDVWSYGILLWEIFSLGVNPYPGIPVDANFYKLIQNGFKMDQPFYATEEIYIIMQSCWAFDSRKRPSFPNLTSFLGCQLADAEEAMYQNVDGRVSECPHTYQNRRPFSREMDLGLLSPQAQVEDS
The test can be described thus: Inhibition of FLT-3, radiometric filter-binding assay. Format: biochemical. Particulars: 90 μM ATP, 0.5 mg/mL pE4Y, room temperature. Here is the method: Compounds were screened for their ability to inhibit FLT-3 activity using a radiometric filter-binding assay. This assay monitors the ^33P incorporation into a substrate poly(Glu, Tyr) 4:1 (pE4Y). Reactions were carried out in a solution containing 100 mM HEPES (pH 7.5), 10 mM MgCl2, 25 mM NaCl, 1 mM DTT, 0.01% BSA and 2.5% DMSO. Final substrate concentrations in the assay were 90 μM ATP and 0.5 mg/mL pE4Y (both from Sigma Chemicals, St Louis, Mo.). The final concentration of compounds is generally between 0.01 and 5 μM. Typically, a 12-point titration was conducted by preparing serial dilutions from 10 mM DMSO stock of test compound. Reactions were carried out at room temperature.
Two assay solutions were prepared. Solution 1 contains 100 mM HEPES (pH 7.5), 10 mM MgCl2, 25 mM NaCl, 1 mg/ml pE4Y and 180 μM ATP(containing 0.3 μCi of [γ-^33P]ATP for each reaction). Solution 2 contains 100 mM HEPES (pH 7.5), 10 mM MgCl2, 25 mM NaCl, 2 mM DTT, 0.02% BSA and 3 nM FLT-3. The assay was run on a 96 well plate by mixing 50 μL each of Solution 1 and […] of the test compounds. The reaction was initiated with Solution2. After incubation for 20 minutes at room temperature, the reaction was stopped with 50 μL of 20% TCA containing 0.4 mM of ATP. All of the reaction volume was then transferred to a filter plate and washed with 5% TCA by a Harvester9600 from TOMTEC (Hamden, Conn.). The amount of ^33P incorporation into pE4y was analyzed by a Packard TopCount Microplate Scintillation Counter (Meriden, Conn.). The data was fitted using Prism software to get an IC50 or Ki.

Sequence of c-Met (P08581 25-1390): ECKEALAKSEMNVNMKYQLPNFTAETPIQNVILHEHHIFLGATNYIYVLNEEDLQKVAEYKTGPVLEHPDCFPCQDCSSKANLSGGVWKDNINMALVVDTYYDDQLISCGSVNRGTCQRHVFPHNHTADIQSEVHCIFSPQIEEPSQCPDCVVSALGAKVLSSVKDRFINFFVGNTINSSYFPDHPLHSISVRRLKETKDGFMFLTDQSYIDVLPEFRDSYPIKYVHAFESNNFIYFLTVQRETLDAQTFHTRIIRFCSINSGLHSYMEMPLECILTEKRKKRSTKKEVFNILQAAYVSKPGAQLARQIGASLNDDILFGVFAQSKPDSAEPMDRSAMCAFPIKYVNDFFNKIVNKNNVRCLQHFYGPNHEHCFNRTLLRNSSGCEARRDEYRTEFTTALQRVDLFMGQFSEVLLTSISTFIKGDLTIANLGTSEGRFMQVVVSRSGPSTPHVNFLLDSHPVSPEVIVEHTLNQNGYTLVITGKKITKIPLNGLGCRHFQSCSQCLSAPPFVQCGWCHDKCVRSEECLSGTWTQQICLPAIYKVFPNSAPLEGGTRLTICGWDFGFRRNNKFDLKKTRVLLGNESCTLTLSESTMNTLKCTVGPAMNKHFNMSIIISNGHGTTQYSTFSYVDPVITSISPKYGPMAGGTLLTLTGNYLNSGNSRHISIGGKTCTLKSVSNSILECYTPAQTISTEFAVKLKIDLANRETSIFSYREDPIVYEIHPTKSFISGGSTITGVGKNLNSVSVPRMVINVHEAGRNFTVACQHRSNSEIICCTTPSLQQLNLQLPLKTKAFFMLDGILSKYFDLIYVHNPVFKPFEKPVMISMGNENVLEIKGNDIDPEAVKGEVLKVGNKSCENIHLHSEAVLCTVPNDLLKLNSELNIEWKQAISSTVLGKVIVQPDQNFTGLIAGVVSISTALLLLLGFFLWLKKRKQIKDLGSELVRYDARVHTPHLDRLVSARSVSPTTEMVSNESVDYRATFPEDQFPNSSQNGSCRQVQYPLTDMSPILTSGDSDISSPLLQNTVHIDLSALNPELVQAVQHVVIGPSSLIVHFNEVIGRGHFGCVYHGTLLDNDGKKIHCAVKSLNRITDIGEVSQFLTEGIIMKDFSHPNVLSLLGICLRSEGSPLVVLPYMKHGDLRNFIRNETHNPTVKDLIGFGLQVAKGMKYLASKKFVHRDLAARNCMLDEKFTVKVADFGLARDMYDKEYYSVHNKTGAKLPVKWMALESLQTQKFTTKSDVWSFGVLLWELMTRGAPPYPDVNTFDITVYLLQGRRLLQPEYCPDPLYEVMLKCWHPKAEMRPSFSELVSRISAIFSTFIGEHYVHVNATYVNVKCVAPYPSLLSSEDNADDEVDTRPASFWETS

For orientation: Ki means a measure of affinity in units of concentration, obtained from inhibition or displacement. A high value points to weaker binding. As to `c1cnc2[nH]cc(-c3oncc3C3CCCCC3)c2c1` [Compound 47, 3-(4-Cyclohexyl-isoxazol-5-yl)-1H-pyrrolo[2,3-b]pyridine], the values for the Ki at c-Met and at FLT-3 were 1000 to 12500 nM and 200 to 1000 nM, respectively.

As to `CCN1CCC(c2cnc3[nH]cc(-c4oncc4-c4cccc(F)c4F)c3c2)CC1` [Compound 72, 3-[4-(2,3-Difluoro-phenyl)-isoxazol-5-yl]-5-(1-ethyl-piperidin-4-yl)-1H-pyrrolo[2,3-b]pyridine], the Ki was below 200 nM on c-Met and 1000 to 12500 nM on FLT-3.

At c-Met, `CS(=O)(=O)n1ccc2cc(-c3cnc4[nH]cc(-c5oncc5-c5cccc(F)c5F)c4c3)cnc21` [Compound 97, 3′-[4-(2,3-Difluoro-phenyl)-isoxazol-5-yl]-1-methanesulfonyl-1H, 1′H-[5,5′]bi[pyrrolo[2,3-b]pyridinyl]] showed a Ki below 200 nM.

Regarding `CN(C)Cc1ccnc(-c2cnc3[nH]cc(-c4oncc4-c4cccc(F)c4F)c3c2)c1` [Compound 82, (2-{3-[4-(2,3-Difluoro-phenyl)-isoxazol-5-yl]-1H-pyrrolo[2,3-b]pyridin-5-yl}-pyridin-4-ylmethyl)-dimethyl-amine], the Ki at c-Met and at FLT-3 was below 200 nM in each case.

The molecule `Fc1cccc(-n2cnnc2-c2c[nH]c3ncc(-c4ccncc4)cc23)c1F` [Compound 114, 3-[4-(2,3-Difluoro-phenyl)-4H-[1,2,4]triazol-3-yl]-5-pyridin-4-yl-1H-pyrrolo[2,3-b]pyridine] came in with an inhibition constant (Ki) on c-Met below 200 nM.

As for `COc1cnc2[nH]cc(-c3oncc3-c3cccc(Cl)c3Cl)c2c1` [Compound 49, 3-[4-(2,3-Dichloro-phenyl)-isoxazol-5-yl]-5-methoxy-1H-pyrrolo[2,3-b]pyridine], the inhibition constant (Ki) on c-Met is below 200 nM; at FLT-3, 200 to 1000 nM.

Turning to `Fc1cccc(-n2cnnc2-c2c[nH]c3ncc(-c4ccc(N5CCC[C@H]5CN5CCCC5)nc4)cc23)c1F` [Compound 115, 3-[4-(2,3-Difluoro-phenyl)-4H-[1,2,4]triazol-3-yl]-5-[6-(2-pyrrolidin-1-ylmethyl-pyrrolidin-1-yl)-pyridin-3-yl]-1H-pyrrolo[2,3-b]pyridine], the Ki is below 200 nM on c-Met and 200 to 1000 nM on FLT-3.

`CN(C)c1ccc(-c2cnc3[nH]cc(-c4nncn4-c4cccc(F)c4F)c3c2)cc1` [Compound 106, (4-{3-[4-(2,3-Difluoro-phenyl)-4H-[1,2,4]triazol-3-yl]-1H-pyrrolo[2,3-b]pyridin-5-yl}-phenyl)-dimethyl-amine]: the Ki on c-Met was below 200 nM; on FLT-3 it was 200 to 1000 nM.

On to `CN(C)c1ccnc2[nH]cc(-c3oncc3-c3cccc(F)c3F)c12` [Compound 56, {3-[4-(2,3-Difluoro-phenyl)-isoxazol-5-yl]-1H-pyrrolo[2,3-b]pyridin-4-yl}-dimethyl-amine], for which the inhibitory constant (Ki) at c-Met and on FLT-3 was 1000 to 12500 nM each time.

For the molecule `Fc1cccc(-n2cnnc2-c2c[nH]c3ncc(-c4ccc(N5CCCC5)nc4)cc23)c1F` [Compound 118, 3-[4-(2,3-Difluoro-phenyl)-4H-[1,2,4]triazol-3-yl]-5-(6-pyrrolidin-1-yl-pyridin-3-yl)-1H-pyrrolo[2,3-b]pyridine], the inhibition constant (Ki) is below 200 nM at c-Met and 200 to 1000 nM on FLT-3.

As for `Fc1cccc(-c2cnoc2-c2c[nH]c3ncc(-c4ccc(N5CCNCC5)cc4)cc23)c1F` [Compound 68, 3-[4-(2,3-Difluoro-phenyl)-isoxazol-5-yl]-5-(4-piperazin-1-yl-phenyl)-1H-pyrrolo[2,3-b]pyridine], the inhibition constant (Ki) on c-Met and on FLT-3 was below 200 nM throughout.

`CN(C)c1ccc(-c2cnc3[nH]cc(-c4oncc4-c4cccc(F)c4F)c3c2)cc1` [Compound 88, (4-{3-[4-(2,3-Difluoro-phenyl)-isoxazol-5-yl]-1H-pyrrolo[2,3-b]pyridin-5-yl}-phenyl)-dimethyl-amine] registered a Ki on c-Met below 200 nM.

As for `Fc1cccc(-c2cnoc2-c2c[nH]c3ncc(-c4cnc5[nH]ccc5c4)cc23)c1F` [Compound 77, 3-[4-(2,3-Difluoro-phenyl)-isoxazol-5-yl]-1H,1′H-[5,5′]bi[pyrrolo[2,3-b]pyridinyl]], the Ki at c-Met and at FLT-3 was below 200 nM each time.

For `CN1CCN(c2ccc(-c3cnc4[nH]cc(-c5oncc5-c5cccc(F)c5F)c4c3)cc2)CC1` [Compound 70, 3-[4-(2,3-Difluoro-phenyl)-isoxazol-5-yl]-5-[4-(4-methyl-piperazin-1-yl)-phenyl]-1H-pyrrolo[2,3-b]pyridine methanesulfonate], the Ki on c-Met and at FLT-3 was below 200 nM in each case.

`CN(C)C(=O)c1ccc(-c2cnc3[nH]cc(-c4oncc4-c4cccc(F)c4F)c3c2)nc1` [Compound 79, 6-{3-[4-(2,3-Difluoro-phenyl)-isoxazol-5-yl]-1H-pyrrolo [2,3-b]pyridin-5-yl}-N,N-dimethyl-nicotinamide]: the inhibition constant (Ki) on c-Met and at FLT-3 was below 200 nM each time.

Take `Fc1cccc(-c2cnoc2-c2c[nH]c3ncc(-c4cncnc4)cc23)c1F` [Compound 85, 3-[4-(2,3-Difluoro-phenyl)-isoxazol-5-yl]-5-pyrimidin-5-yl-1H-pyrrolo[2,3-b]pyridine]: the inhibitory constant (Ki) at c-Met is below 200 nM; at FLT-3, 200 to 1000 nM.

`Clc1cccc(-c2cnoc2-c2c[nH]c3ncc(-c4cccnc4)cc23)c1Cl` [Compound 99, 3-[4-(2,3-Dichloro-phenyl)-isoxazol-5-yl]-5-pyridin-3-yl-1H-pyrrolo[2,3-b]pyridine]: the inhibition constant (Ki) at c-Met and on FLT-3 was below 200 nM in each case.

As to `Fc1cccc(-c2cnoc2-c2c[nH]c3ncc(Br)cc23)c1F` [Compound 37, 5-Bromo-3-[4-(2,3-difluoro-phenyl)-isoxazol-5-yl]-1H-pyrrolo[2,3-b]pyridine], on c-Met, the Ki was below 200 nM.

Molecule `Fc1cccc(-n2cnnc2-c2c[nH]c3ncc(-c4cccnc4)cc23)c1F` [Compound 113, 3-[4-(2,3-Difluoro-phenyl)-4H-[1,2,4]triazol-3-yl]-5-pyridin-3-yl-1H-pyrrolo[2,3-b]pyridine] came in with a Ki on c-Met below 200 nM.

Molecule `O=c1[nH]ccc2c(-c3oncc3-c3cccc(F)c3F)c[nH]c12` [Compound 145, 3-[4-(2,3-Difluoro-phenyl)-isoxazol-5-yl]-1,6-dihydro-pyrrolo[2,3-c]pyridin-7-one] returned a Ki on c-Met of 1000 to 12500 nM.

Consider `Fc1ccc(-c2cnoc2-c2c[nH]c3ncccc23)c(F)c1F` [Compound 40, 3-[4-(2,3,4-Trifluoro-phenyl)-isoxazol-5-yl]-1H-pyrrolo [2,3-b]pyridine], for which the Ki on c-Met was below 200 nM.

Regarding `Cc1noc(-c2c[nH]c3ncc(-c4ccc(N5CCN(C)CC5)cc4)cc23)c1-c1cccc(F)c1F` [Compound 135, 3-[4-(2,3-Difluoro-phenyl)-3-methyl-isoxazol-5-yl]-5-[4-(4-methyl-piperazin-1-yl)-phenyl]-1H-pyrrolo[2,3-b]pyridine], on c-Met, the Ki was below 200 nM.

Take `O=c1ccc(-c2cnc3[nH]cc(-c4oncc4-c4cccc(F)c4F)c3c2)c[nH]1` [Compound 67, 5-{3-[4-(2,3-Difluoro-phenyl)-isoxazol-5-yl]-1H-pyrrolo [2,3-b]pyridin-5-yl}-1H-pyridin-2-one]: the Ki at c-Met was below 200 nM.
